Source: patent US9512114B2, “Substituted aminopyrimidine compounds and methods of use” (Calitor Sciences, LLC, priority 2013, dated 2016)

Assays:
[1] = system: rheumatoid arthritis model; settings: Nature Medicine, 2005, 11, 936-943; cited from earlier work
[2] = system: systemic lupus erythematosis model; settings: Nature Medicine, 2005, 11, 933-935; cited from earlier work
[3] = Compound stability in human liver microsomes; format: in vitro ADME; settings: pH 7.4; for CLint scaled at 5 μM: liver microsomes, in vivo CLint extrapolated from human liver microsome incubation; for half-life at 5 μM: human liver microsomes 0.5 mg protein/mL, compound 5 μM, NADPH 1.0 mM, 37° C., read-out: Human T1/2
Method: (§1) The LC/MS/MS system used in the analysis consists of an Agilent 1200 Series vacuum degasser, binary pump, well-plate autosampler, thermostatted column compartment, the Agilent G6430 Triple Quadrupole Mass Spectrometer with an electrosprayionization (ESI) source. Quantitative analysis was carried out using MRM mode. The parameters for MRM transitions are in the Table A.
(§2) An Agilent XDB-C18, 2.1×30 mm, […] column was used for the analysis. 5 μL of the samples were injected. Analysis condition: The mobile phase was 0.1% formic acid in water (A) and 0.1% formic acid in methanol (B). The flow rate was 0.4 mL/min. And the gradient of Mobile phase was in the Table B.
(§3) Alternatively, an Agilent 6330 series LC/MS/MS spectrometer equipped with G1312A binary pumps, a G1367A autosampler and a G1314C UV detector were used in the analysis. An ESI source was used on the LC/MS/MS spectrometer. The analysis was done in positive ion mode as appropriate and the MRM transition for each analyte was optimized using standard solution. A Capcell MP-C18 100×4.6 mm I.D., […] column (Phenomenex, Torrance, Calif., USA) was used during the analysis. The mobile phase was 5 mM ammonia acetate, 0.1% MeOH in water (A): 5 mM ammonia acetate, 0.1% MeOH in acetonitrile (B) (70:30, v/v). The flow rate was 0.6 mL/min. Column was maintained at ambient temperature. 20 μL of the samples were injected.
(§4) Human or rat liver microsomes incubations were conducted in duplicate in polypropylene tubes. The typical incubation mixtures consisted of human or rat liver microsomes (0.5 mg protein/mL), compounds of interest (5 μM) and NADPH (1.0 mM) in a total volume of 200 μL potassium phosphate buffer (PBS, 100 mM, pH 7.4). Compounds were dissolved in DMSO and diluted with PBS such that the final concentration of DMSO was 0.05%. The enzymatic reactions were commenced with the addition of protein after a 3-min preincubation and incubated in a water bath open to the air at 37° C. Reactions were terminated at various time points (0, 5, 10, 15, 30, 60 min) by adding equal volume of ice-cold acetonitrile. The samples were stored at −80° C. until LC/MS/MS assays.
(§5) The concentrations of compounds in the incubation mixtures of human or rat liver microsomes were determined by a LC/MS/MS method. The ranges of the linearity in the concentration range were determined for each tested compounds.
(§6) A parallel incubation was performed using denatured microsomes as the negative control, and reactions were terminated at various time points (0, 15, 60 min) after incubation at 37° C.
(§7) Dextromethorphan (70 μM) was selected as the positive control, and reactions were terminated at various time points (0, 5, 10, 15, 30, 60 min) after incubation at 37° C. Both positive and negative control samples were included in each assay to ensure the integrity of the microsomal incubation system.
(§8) The concentrations of compounds in human or rat liver microsome incubations were plotted as a percentage of the relevant zero time point control for each reaction. The in vivo CLint were extrapolated (ref.: Naritomi, Y.; Terashita, S.; Kimura, S.; Suzuki, A.; Kagayama, A.; and Sugiyama, Y.; Prediction of human hepatic clearance from in vivo animal experiments and in vitro metabolic studies with liver microsomes from animals and humans. Drug Metab. Dispos., 2001, 29: 1316-1324).

[4] = Compound stability in rat liver microsomes; format: in vitro ADME; settings: pH 7.4; for CLint scaled at 5 μM: liver microsomes, in vivo CLint extrapolated from rat liver microsome incubation; for half-life at 5 μM: rat liver microsomes 0.5 mg protein/mL, compound 5 μM, NADPH 1.0 mM, 37° C., read-out: Rat T1/2
Method: as §1, §2, §3, §4, §5, §6, §7, §8

[5] = Pharmacokinetic profiles in rats; format: in vivo, rat; settings: for Cl/F / AUC(0-t) / half-life / Vd: iv dosing 1 mg/kg; for F: oral vs iv (iv 1 mg/kg; p.o. generally 5 or 10 mg/kg); for AUC(0-t) / half-life / Vd: rat, plasma; for Vd: read-out: Vss
Method: The compounds disclosed herein are assessed in pharmacokinetic studies in mice, rats, dogs or monkeys. The compounds are administered as a water solution, 2% HPMC+1% TWEEN®80 in water solution, 5% DMSO+5% solutol in saline, 4% MC suspension or capsule. For the intravenous administration, the animals are generally given at 1 or 2 mg/kg dose. For the oral (p.o.) dosing, mice and rats are generally given 5 or 10 mg/kg dose, and dogs and monkeys are generally given 10 mg/kg dose. The blood samples (0.3 mL) are drawn at 0.25, 0.5, 1.0, 2.0, 3.0, 4.0, 6.0, 8.0, 12 and 24 h time points or 0.083, 0.25, 0.5, 1.0, 2.0, 4.0, 6.0, 8.0 and 24 h time points and centrifuged at 3,000 or 4000 rpm for 2 to 10 min. The plasma solutions are collected, stored at −20° C. or −70° C. until analyzed by LC/MS/MS as described above.

PI3K (p110α/p85α) (h) = PI3K (p110α/p85α) (h) (Homo sapiens (Human), UniProt P42336); assay: PI3K (p110α/p85α) (h) non-radioactive HTRF kinase assay; format: biochemical; settings: performed at Millipore UK Ltd
PI3K (p110α/p85α) (h), sequence (P42336 whole entry): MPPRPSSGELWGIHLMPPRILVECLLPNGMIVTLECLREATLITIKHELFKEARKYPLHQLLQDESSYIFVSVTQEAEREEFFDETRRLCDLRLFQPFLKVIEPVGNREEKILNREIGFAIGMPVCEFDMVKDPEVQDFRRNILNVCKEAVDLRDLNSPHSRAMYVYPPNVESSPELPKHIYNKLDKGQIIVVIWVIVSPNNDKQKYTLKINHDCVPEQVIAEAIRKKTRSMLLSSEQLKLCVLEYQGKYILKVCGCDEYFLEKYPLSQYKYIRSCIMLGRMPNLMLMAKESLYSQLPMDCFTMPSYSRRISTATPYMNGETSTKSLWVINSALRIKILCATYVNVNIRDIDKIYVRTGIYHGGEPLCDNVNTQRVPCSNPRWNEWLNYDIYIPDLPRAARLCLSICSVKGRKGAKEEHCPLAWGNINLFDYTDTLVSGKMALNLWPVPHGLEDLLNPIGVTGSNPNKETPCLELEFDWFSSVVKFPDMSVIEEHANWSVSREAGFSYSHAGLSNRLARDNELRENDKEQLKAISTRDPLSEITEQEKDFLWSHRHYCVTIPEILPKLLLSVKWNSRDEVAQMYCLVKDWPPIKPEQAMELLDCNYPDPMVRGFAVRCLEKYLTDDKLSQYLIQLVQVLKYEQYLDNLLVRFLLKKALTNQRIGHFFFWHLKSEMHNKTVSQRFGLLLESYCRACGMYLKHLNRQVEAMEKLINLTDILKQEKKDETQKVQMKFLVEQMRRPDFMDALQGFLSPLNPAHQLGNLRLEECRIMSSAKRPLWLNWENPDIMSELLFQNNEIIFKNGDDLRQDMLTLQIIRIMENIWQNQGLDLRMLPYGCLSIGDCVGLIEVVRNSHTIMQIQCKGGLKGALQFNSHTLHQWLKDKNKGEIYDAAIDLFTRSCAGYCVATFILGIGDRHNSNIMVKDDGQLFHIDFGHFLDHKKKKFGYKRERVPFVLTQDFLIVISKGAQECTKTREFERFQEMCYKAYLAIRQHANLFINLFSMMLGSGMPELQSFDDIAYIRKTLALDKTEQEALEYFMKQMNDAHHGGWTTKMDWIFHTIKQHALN
PI3K (p110α/p85α) (h), sequence (P27986 whole entry partner): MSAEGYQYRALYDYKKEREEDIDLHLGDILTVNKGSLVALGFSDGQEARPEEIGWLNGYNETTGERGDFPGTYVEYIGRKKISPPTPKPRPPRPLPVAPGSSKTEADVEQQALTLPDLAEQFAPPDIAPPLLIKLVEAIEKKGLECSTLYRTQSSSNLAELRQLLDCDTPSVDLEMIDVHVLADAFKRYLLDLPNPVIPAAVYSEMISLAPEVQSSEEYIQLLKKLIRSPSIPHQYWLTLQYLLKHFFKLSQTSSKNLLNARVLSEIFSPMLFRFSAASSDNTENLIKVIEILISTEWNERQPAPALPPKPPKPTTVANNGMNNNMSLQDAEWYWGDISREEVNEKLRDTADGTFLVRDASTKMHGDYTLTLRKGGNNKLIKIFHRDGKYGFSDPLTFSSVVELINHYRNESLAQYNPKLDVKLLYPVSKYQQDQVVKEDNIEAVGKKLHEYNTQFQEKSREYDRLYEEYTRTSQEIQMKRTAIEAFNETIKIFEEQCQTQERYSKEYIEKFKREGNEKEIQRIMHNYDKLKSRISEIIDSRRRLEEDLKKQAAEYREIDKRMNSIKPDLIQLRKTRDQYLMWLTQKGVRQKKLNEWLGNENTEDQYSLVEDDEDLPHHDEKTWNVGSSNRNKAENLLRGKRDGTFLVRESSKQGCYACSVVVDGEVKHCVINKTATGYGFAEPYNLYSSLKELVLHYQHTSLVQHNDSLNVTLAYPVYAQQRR
Method: (§9) The above assay procedure can be used to determine the IC50 for inhibition and/or the inhibition constant, Ki.
PI3K (p110α/p85α) (h) [Non-Radioactive Assay]
(§10) PI3K (p110α/p85α) (h) is incubated in assay buffer containing 10 μM phosphatidylinositol 4,5-bisphosphate and MgATP (concentration as required). The reaction is initiated by the addition of the ATP solution. After incubation for 30 minutes at room temperature, the reaction is stopped by the addition of stop solution containing EDTA and biotinylated phosphatidylinositol-3,4,5-trisphosphate. Finally, detection buffer is added, which contains europium-labelled anti-GST monoclonal antibody, GST-tagged GRP1 PH domain and streptavidin allophycocyanin. The plate is then read in timeresolved fluorescence mode and the homogenous time-resolved fluorescence (HTRF) signal is determined according to the formula HTRF=10000×(Em665 nm/Em620 nm).
(§11) The kinase assays described herein were performed at Millipore UK Ltd, Dundee Technology Park, Dundee DD2 1SW, UK.

PI3K (p110β/p85α) (h) = PI3K (p110β/p85α) (h) (Homo sapiens (Human), UniProt P42338); assay: PI3K (p110β/p85α) (h) non-radioactive HTRF kinase assay; format: biochemical; settings: performed at Millipore UK Ltd
PI3K (p110β/p85α) (h), sequence (P42338 whole entry): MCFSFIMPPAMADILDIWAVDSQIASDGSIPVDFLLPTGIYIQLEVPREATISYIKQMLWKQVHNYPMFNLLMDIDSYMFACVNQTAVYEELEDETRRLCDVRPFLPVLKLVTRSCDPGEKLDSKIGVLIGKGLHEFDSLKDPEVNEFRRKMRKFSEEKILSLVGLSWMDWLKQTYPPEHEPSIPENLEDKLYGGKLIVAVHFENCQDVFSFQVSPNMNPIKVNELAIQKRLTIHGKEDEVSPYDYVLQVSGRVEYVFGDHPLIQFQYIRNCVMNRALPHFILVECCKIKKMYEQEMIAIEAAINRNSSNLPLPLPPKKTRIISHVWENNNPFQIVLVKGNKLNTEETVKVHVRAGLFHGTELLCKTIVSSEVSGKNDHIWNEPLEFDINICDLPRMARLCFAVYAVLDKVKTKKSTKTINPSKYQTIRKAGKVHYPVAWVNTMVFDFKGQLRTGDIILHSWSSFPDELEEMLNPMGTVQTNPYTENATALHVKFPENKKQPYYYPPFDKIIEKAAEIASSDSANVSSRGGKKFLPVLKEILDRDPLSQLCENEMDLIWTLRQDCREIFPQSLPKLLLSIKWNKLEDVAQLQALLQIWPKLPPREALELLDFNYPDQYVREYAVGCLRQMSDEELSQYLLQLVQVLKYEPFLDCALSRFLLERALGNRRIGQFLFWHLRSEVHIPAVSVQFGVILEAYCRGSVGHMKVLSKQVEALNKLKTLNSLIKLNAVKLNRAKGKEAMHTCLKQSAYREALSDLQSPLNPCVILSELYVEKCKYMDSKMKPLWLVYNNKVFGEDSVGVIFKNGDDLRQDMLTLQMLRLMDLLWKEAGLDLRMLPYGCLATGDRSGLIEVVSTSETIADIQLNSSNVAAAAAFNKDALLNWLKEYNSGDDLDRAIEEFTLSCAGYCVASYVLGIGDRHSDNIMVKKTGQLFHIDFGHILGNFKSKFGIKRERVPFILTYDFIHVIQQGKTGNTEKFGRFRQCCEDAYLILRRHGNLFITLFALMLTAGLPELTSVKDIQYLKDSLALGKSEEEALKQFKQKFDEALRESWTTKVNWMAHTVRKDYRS
PI3K (p110β/p85α) (h), sequence (P27986 whole entry partner): as the sequence (P27986 whole entry partner) above
Method: as §9
PI3K (p110β/p85α) (h) [Non-Radioactive Assay]
as §10, with “([…])” for “(p110α/p85α)”, “phosphatidylinositol-4, 5-bisphosphate” for “phosphatidylinositol 4,5-bisphosphate”, “MgATP mix.” for “ATP solution.”, “streptavidin-allophycocyanin.” for “streptavidin allophycocyanin.”
as §11

PI3K (p120γ) (h) = PI3K (p120γ) (h) (Homo sapiens (Human), UniProt P48736); assay: PI3K (p120γ) (h) non-radioactive HTRF kinase assay; format: biochemical; settings: performed at Millipore UK Ltd
PI3K (p120γ) (h), sequence (P48736 whole entry): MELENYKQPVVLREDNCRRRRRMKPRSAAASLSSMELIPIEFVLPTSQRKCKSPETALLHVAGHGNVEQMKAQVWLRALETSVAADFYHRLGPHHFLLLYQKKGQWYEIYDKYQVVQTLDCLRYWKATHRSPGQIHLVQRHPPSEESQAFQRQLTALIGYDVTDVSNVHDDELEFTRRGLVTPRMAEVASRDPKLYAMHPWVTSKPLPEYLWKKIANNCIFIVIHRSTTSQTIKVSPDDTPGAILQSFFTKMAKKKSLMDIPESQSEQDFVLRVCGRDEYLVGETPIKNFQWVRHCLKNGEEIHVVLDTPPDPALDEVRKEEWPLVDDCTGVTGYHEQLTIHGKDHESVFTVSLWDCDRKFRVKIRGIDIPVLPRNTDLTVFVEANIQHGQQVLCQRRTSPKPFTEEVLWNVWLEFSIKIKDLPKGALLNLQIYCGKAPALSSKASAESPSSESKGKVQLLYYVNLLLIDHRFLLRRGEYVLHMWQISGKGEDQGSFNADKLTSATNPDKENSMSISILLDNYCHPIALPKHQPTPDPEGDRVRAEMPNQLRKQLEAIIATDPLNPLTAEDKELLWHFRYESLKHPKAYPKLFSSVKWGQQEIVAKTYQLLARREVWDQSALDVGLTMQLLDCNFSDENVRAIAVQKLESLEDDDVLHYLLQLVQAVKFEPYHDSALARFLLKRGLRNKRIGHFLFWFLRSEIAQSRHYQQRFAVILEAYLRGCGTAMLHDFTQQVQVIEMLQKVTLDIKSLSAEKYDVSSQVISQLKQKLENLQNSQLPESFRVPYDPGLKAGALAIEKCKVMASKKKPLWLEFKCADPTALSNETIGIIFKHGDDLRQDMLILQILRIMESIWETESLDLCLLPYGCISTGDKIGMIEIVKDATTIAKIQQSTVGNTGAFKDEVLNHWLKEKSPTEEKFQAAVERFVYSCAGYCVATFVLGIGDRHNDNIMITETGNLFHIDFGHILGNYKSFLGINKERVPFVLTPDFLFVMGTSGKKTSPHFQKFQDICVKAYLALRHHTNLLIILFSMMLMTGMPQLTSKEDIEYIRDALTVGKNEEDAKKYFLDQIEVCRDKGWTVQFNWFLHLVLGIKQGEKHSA
Method: as §9
PI3K (p120γ) (h) [Non-Radioactive Assay]
as §10, with “(p120γ)” for “(p110α/p85α)”, “phosphatidylinositol-4, 5-bisphosphate” for “phosphatidylinositol 4,5-bisphosphate”, “MgATP mix.” for “ATP solution.”, “streptavidin-allophycocyanin.” for “streptavidin allophycocyanin.”
as §11

PI3K (p110δ/p85α) (h) = PI3K (p110δ/p85α) (h) (Homo sapiens (Human), UniProt O00329); assay: PI3K (p110δ/p85α) (h) non-radioactive HTRF kinase assay; format: biochemical; settings: performed at Millipore UK Ltd
PI3K (p110δ/p85α) (h), sequence (O00329 whole entry): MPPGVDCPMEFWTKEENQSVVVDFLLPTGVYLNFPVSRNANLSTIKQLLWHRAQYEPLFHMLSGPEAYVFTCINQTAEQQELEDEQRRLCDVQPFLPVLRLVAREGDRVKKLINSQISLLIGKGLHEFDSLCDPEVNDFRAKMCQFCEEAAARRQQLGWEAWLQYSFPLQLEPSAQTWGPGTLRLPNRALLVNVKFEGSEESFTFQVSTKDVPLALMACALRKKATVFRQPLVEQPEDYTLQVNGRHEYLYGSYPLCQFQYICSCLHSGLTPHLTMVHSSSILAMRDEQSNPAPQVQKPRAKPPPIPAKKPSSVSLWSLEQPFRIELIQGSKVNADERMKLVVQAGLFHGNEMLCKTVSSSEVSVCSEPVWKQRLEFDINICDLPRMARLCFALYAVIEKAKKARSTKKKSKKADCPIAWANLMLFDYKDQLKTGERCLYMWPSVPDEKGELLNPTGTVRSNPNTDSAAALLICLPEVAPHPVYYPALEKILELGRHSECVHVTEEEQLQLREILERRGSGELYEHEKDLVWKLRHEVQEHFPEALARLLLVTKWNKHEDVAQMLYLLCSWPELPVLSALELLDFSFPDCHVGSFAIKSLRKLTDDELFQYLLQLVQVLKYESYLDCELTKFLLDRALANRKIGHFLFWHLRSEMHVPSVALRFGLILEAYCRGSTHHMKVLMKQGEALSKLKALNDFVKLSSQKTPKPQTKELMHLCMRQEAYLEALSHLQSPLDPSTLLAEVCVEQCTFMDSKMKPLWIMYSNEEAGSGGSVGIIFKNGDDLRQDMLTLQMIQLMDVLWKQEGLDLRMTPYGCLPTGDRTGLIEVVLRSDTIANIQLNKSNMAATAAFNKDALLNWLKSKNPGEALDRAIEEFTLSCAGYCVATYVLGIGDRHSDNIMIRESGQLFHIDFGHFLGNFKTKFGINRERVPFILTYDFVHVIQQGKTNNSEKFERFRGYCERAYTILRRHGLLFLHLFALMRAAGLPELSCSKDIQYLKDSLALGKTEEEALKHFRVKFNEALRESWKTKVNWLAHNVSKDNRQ
PI3K (p110δ/p85α) (h), sequence (P27986 whole entry partner): as the sequence (P27986 whole entry partner) above
Method: as §9
PI3K (p110δ/p85α) (h) [Non-Radioactive Assay]
as §10, with “(p110δ/p85α)” for “(p110α/p85α)”, “phosphatidylinositol-4, 5-bisphosphate” for “phosphatidylinositol 4,5-bisphosphate”, “MgATP mix.” for “ATP solution.”, “streptavidin-allophycocyanin.” for “streptavidin allophycocyanin.”
as §11

PI3Kδ = settings: Cell, 2006, 125, 733-747; cited from earlier work
protein kinases = settings: Cell, 2006, 125, 733-747; cited from earlier work
[6] = system: ovalbumin-induced airway inflammation; settings: murine asthma model, FASEB, 2006, 20: 455-465; cited from earlier work

Row | SMILES | CLint scaled at 5 μM [3] | half-life at 5 μM [3] | CLint scaled at 5 μM [4] | half-life at 5 μM [4] | Cl/F [5] | F [5] | AUC(0-t) [5] | half-life [5] | Vd [5] | IC50 (PI3K (p110α/p85α) (h)) | IC50 (PI3K (p110β/p85α) (h)) | IC50 (PI3K (p120γ) (h)) | IC50 (PI3K (p110δ/p85α) (h)) | efficacy in mouse model of rheumatoid arthritis [1] | effect on onset of disease in model of systemic lupus erythematosis [2] | inhibits PI3Kδ (PI3Kδ) | activity against any protein kinases tested (protein kinases) | effect on inflammation and disease [6]
1 | O=C1NC(=O)/C(=C\c2ccc3nccnc3c2)S1 [AS 605240] | – | – | – | – | – | – | – | – | – | – | – | – | – | efficacious | delay onset of disease | – | – | –
2 | CC[C@H](Nc1ncnc(N)c1-c1nnc(C)o1)c1cc2cccc(Cl)c2c(=O)n1-c1ccccc1 [Ex. 5, (S)-3-(1-((6-amino-5-(5-methyl-1,3,4-oxadiazol-2-yl)pyrimidin-4-yl)amino)propyl)-8-chloro-2-phenylisoquinolin-1(2H)-one] | 29.2 mL/min/kg | 59.6 min | 108 mL/min/kg | 23.1 min | 3.13 L/h/kg | 106.3% | 320 ng·h/mL | 31.8 min | 1.87 L/kg | > 3000 nM | 259 nM | 388 nM | – | – | – | – | – | –
3 | Cc1nc(-c2c(N)ncnc2N[C@@H](C)c2cc3cccc(Cl)c3c(=O)n2C2CC2)no1 [Ex. 11, (S)-3-(1-((6-amino-5-(5-methyl-1,2,4-oxadiazol-3-yl)pyrimidin-4-yl)amino)ethyl)-8-chloro-2-cyclopropylisoquinolin-1(2H)-one] | 545 mL/min/kg | 3.19 min | 317 mL/min/kg | 7.83 min | – | – | – | – | – | 1480 nM | – | 375 nM | 13 nM | – | – | – | – | –
4 | Cc1ccccc1-n1c(Cn2cnc3c(N)ncnc32)nc2cccc(C)c2c1=O [IC87114] | – | – | – | – | – | – | – | – | – | – | – | – | – | – | – | high nanomolar range (triple digit) | no activity | significantly ameliorate inflammation and disease

The next lines start with results.

Row | CLint scaled at 5 μM [3] | half-life at 5 μM [3] | CLint scaled at 5 μM [4] | half-life at 5 μM [4] | Cl/F [5] | F [5] | AUC(0-t) [5] | half-life [5] | Vd [5] | IC50 (PI3K (p110α/p85α) (h)) | IC50 (PI3K (p110β/p85α) (h)) | IC50 (PI3K (p120γ) (h)) | IC50 (PI3K (p110δ/p85α) (h)) | SMILES | efficacy in mouse model of rheumatoid arthritis [1] | effect on onset of disease in model of systemic lupus erythematosis [2] | inhibits PI3Kδ (PI3Kδ) | activity against any protein kinases tested (protein kinases) | effect on inflammation and disease [6]
5 | 114 mL/min/kg | 15.3 min | 190 mL/min/kg | 13.1 min | 7.20 L/h/kg | 12.28% | 139 ng·h/mL | 45 min | 5.46 L/kg | 307 nM | – | 15 nM | 3 nM | Cc1noc(-c2c(N)ncnc2N[C@@H](C)c2cc3cccc(Cl)c3c(=O)n2C2CC2)n1 [Ex. 24, (S)-3-(1-((6-amino-5-(3-methyl-1,2,4-oxadiazol-5-yl)pyrimidin-4-yl)amino)ethyl)-8-chloro-2-cyclopropylisoquinolin-1(2H)-one] | – | – | – | – | –
6 | 15.5 mL/min/kg | 112 min | 33.3 mL/min/kg | 74.5 min | – | – | – | – | – | > 3000 nM | > 3000 nM | 237 nM | 17 nM | Cc1nnc(-c2c(N)ncnc2N[C@@H](C)c2cc3cccc(-c4cnn(C)c4)c3c(=O)n2-c2ccccc2)o1 [Ex. 27, (S)-3-(1-((6-amino-5-(5-methyl-1,3,4-oxadiazol-2-yl)pyrimidin-4-yl)amino)ethyl)-8-(1-methyl-1H-pyrazol-4-yl)-2-phenylisoquinolin-1(2H)-one] | – | – | – | – | –
7 | 64.1 mL/min/kg | 27.1 min | 72.7 mL/min/kg | 34.2 min | – | – | – | – | – | 225 nM | 1170 nM | 104 nM | 9 nM | Cc1noc(-c2c(N)ncnc2N[C@@H](C)c2cc3cccc(-c4cnn(C)c4)c3c(=O)n2-c2ccccc2)n1 [Ex. 28, (S)-3-(1-((6-amino-5-(3-methyl-1,2,4-oxadiazol-5-yl)pyrimidin-4-yl)amino)ethyl)-8-(1-methyl-1H-pyrazol-4-yl)-2-phenylisoquinolin-1(2H)-one] | – | – | – | – | –
